From PubChem BioAssay (NCI)
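Grown in 96-well plates, cells were treated for 48 hours with each compound at five concentrations. Insufficient inhibition: endpoint recorded as highest concentration tested. Here, GI50 denotes the concentration required for 50% inhibition of growth. TGI denotes the concentration required for complete inhibition of growth.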

Legend:
Test in all cases: NCI-60 cell line screen, 48 h
SNB-19 CNS = test system: SNB-19 CNS
HCT-15 colon = test system: HCT-15 colon
786-0 renal = test system: 786-0 renal
UACC-62 melanoma = test system: UACC-62 melanoma
SK-MEL-5 melanoma = test system: SK-MEL-5 melanoma
HCT-116 colon = test system: HCT-116 colon
OVCAR-4 ovarian = test system: OVCAR-4 ovarian
T-47D breast = test system: T-47D breast
U251 CNS = test system: U251 CNS
UO-31 renal = test system: UO-31 renal
SK-MEL-28 melanoma = test system: SK-MEL-28 melanoma
TK-10 renal = test system: TK-10 renal
OVCAR-3 ovarian = test system: OVCAR-3 ovarian
HCC-2998 colon = test system: HCC-2998 colon
COLO 205 colon = test system: COLO 205 colon
PC-3 prostate = test system: PC-3 prostate
MCF7 breast = test system: MCF7 breast
SF-539 CNS = test system: SF-539 CNS
SK-MEL-2 melanoma = test system: SK-MEL-2 melanoma
HOP-92 NSCLC = test system: HOP-92 NSCLC
LOX IMVI melanoma = test system: LOX IMVI melanoma
CAKI-1 renal = test system: CAKI-1 renal
SN12C renal = test system: SN12C renal
SW-620 colon = test system: SW-620 colon
MDA-MB-231 breast = test system: MDA-MB-231 breast
SR leukemia = test system: SR leukemia
KM12 colon = test system: KM12 colon
NCI-H23 lung = test system: NCI-H23 lung
UACC-257 melanoma = test system: UACC-257 melanoma
BT-549 breast = test system: BT-549 breast
K-562 leukemia = test system: K-562 leukemia
RPMI-8226 leukemia = test system: RPMI-8226 leukemia
SK-OV-3 ovarian = test system: SK-OV-3 ovarian
MOLT-4 leukemia = test system: MOLT-4 leukemia
RXF 393 renal = test system: RXF 393 renal
MDA-MB-435 = test system: MDA-MB-435
IGROV1 ovarian = test system: IGROV1 ovarian
SF-268 CNS = test system: SF-268 CNS
HT29 colon = test system: HT29 colon
OVCAR-5 ovarian = test system: OVCAR-5 ovarian
HS 578T breast = test system: HS 578T breast
DU-145 prostate = test system: DU-145 prostate
HOP-62 NSCLC = test system: HOP-62 NSCLC
A498 renal = test system: A498 renal
SNB-75 CNS = test system: SNB-75 CNS
NCI/ADR-RES ovarian = test system: NCI/ADR-RES ovarian
NCI-H226 lung = test system: NCI-H226 lung
ACHN renal = test system: ACHN renal
HL-60(TB) leukemia = test system: HL-60(TB) leukemia
CCRF-CEM leukemia = test system: CCRF-CEM leukemia
SF-295 CNS = test system: SF-295 CNS
NCI-H522 lung = test system: NCI-H522 lung
EKVX NSCLC = test system: EKVX NSCLC

## c1ccc(-c2n(Cc3ccc4ccccc4c3)c3c4ccccc4c4ccccc4c3[n+]2Cc2ccc3ccccc3c2)cc1
SNB-19 CNS
  GI50: 364 nM
  TGI: 1450 nM
HCT-15 colon
  GI50: 966 nM
  TGI: 2630 nM
786-0 renal
  GI50: 337 nM
  TGI: 1340 nM
UACC-62 melanoma
  GI50: 343 nM
  TGI: 1400 nM
SK-MEL-5 melanoma
  GI50: 203 nM
  TGI: 437 nM
HCT-116 colon
  GI50: 183 nM
  TGI: 1140 nM
OVCAR-4 ovarian
  GI50: 298 nM
  TGI: 1270 nM
T-47D breast
  GI50: 367 nM
  TGI: 1840 nM
U251 CNS
  GI50: 312 nM
  TGI: 1560 nM
UO-31 renal
  GI50: 1550 nM
  TGI: 3220 nM
SK-MEL-28 melanoma
  GI50: 569 nM
  TGI: 1870 nM
TK-10 renal
  GI50: 468 nM
  TGI: 2000 nM
OVCAR-3 ovarian
  GI50: 351 nM
  TGI: 1230 nM
HCC-2998 colon
  GI50: 407 nM
  TGI: 1580 nM
COLO 205 colon
  GI50: 267 nM
  TGI: 795 nM
PC-3 prostate
  GI50: 313 nM
  TGI: 1220 nM
MCF7 breast
  GI50: 304 nM
  TGI: 1360 nM
SF-539 CNS
  GI50: 375 nM
  TGI: 1400 nM
SK-MEL-2 melanoma
  GI50: 294 nM
  TGI: 853 nM
HOP-92 NSCLC
  GI50: 211 nM
  TGI: 740 nM
LOX IMVI melanoma
  GI50: 177 nM
  TGI: 355 nM
CAKI-1 renal
  GI50: 389 nM
  TGI: 1520 nM
SN12C renal
  GI50: 323 nM
  TGI: 1210 nM
SW-620 colon
  GI50: 329 nM
  TGI: 1370 nM
MDA-MB-231 breast
  GI50: 313 nM
  TGI: 1060 nM
SR leukemia
  GI50: 245 nM
  TGI: 825 nM
KM12 colon
  GI50: 395 nM
  TGI: 1510 nM
NCI-H23 lung
  GI50: 228 nM
  TGI: 790 nM
UACC-257 melanoma
  GI50: 328 nM
  TGI: 1240 nM
BT-549 breast
  GI50: 316 nM
  TGI: 1290 nM
K-562 leukemia
  GI50: 271 nM
  TGI: 1180 nM
RPMI-8226 leukemia
  GI50: 261 nM
  TGI: 1040 nM
SK-OV-3 ovarian
  GI50: 317 nM
  TGI: 1120 nM
MOLT-4 leukemia
  GI50: 377 nM
  TGI: 1390 nM
RXF 393 renal
  GI50: 280 nM
  TGI: 1030 nM
MDA-MB-435
  GI50: 340 nM
  TGI: 1250 nM
IGROV1 ovarian
  GI50: 192 nM
  TGI: 1340 nM
SF-268 CNS
  GI50: 441 nM
  TGI: 1840 nM
HT29 colon
  GI50: 179 nM
  TGI: 1380 nM
OVCAR-5 ovarian
  GI50: 423 nM
  TGI: 1700 nM
HS 578T breast
  GI50: 434 nM
  TGI: 2050 nM
DU-145 prostate
  GI50: 406 nM
  TGI: 1520 nM
HOP-62 NSCLC
  GI50: 358 nM
  TGI: 1590 nM
A498 renal
  GI50: 337 nM
  TGI: 1230 nM
SNB-75 CNS
  GI50: 303 nM
  TGI: 1400 nM
NCI/ADR-RES ovarian
  GI50: 1630 nM
  TGI: 3660 nM
NCI-H226 lung
  GI50: 408 nM
  TGI: 1850 nM
ACHN renal
  GI50: 708 nM
  TGI: 1930 nM
HL-60(TB) leukemia
  GI50: 157 nM
  TGI: 380 nM
CCRF-CEM leukemia
  GI50: 357 nM
  TGI: 1750 nM
SF-295 CNS
  GI50: 282 nM
  TGI: 1110 nM
NCI-H522 lung
  GI50: 340 nM
  TGI: 1630 nM
EKVX NSCLC
  GI50: 552 nM
  TGI: 2030 nM
